Assay results published in patent publication US6156700A, “3-(1,2-Benzisothiazol- and isoxazol-5-yl)-2,4(1H,3H)-pyrimidinedione or thione and 3-(1,2-benzisothiazol- and isoxazol-5-yl)-4(3H)-pyrimidinone or thione herbicidal agents” (American Cyanmid Company, priority 1998, dated 2000).

What was measured:
[1] = test system: Barnyardgrass, Echinochloa crus-galli; assay: Preemergence herbicidal evaluation, ECHCG; format: in vivo, (L.) Beau; details: 0.2500 kg/ha
In short: (§1)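 Greenhouse preemergence test with soil-surface spray of compound (aqueous acetone, approx. 0.0156–0.500 kg per hectare) just after planting. Injury was scored visually on a 0–9 scale at 4–5 weeks.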

[2] = test system: ECHORC Watergrass (Calif.); assay: Postemergence weed control, flooded paddy (Table IV); format: in vivo, Echinochloa oryzoides; parameters: scale not given here
In short: (§2)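 Weeds 3–5 cm tall and rice at 1.5–2.5 leaf stage in flooded containers, water held 1.5–3 cm above soil. Compounds in 50/50 aqueous/acetone applied into flood water at about 0.0313–0.500 kg/ha. Herbicidal effect rated visually three to four weeks after treatment.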

[3] = test system: Morningglory Spp., Ipomoea Spp.; assay: Preemergence herbicidal evaluation, IPOSS; format: in vivo; details: 0.2500 kg/ha
Excerpt: Results of herbicide evaluation are expressed on a rating scale (0-9). The scale is based upon a visual observation of plant stand, vigor, malformation, size, chlorosis and overall plant appearance as compared with a control.
The preemergence herbicidal activity of the test compounds of the present invention is exemplified by the following tests in which the seeds of a variety of monocotyledonous and dicotyledonous plants are separately mixed with potting soil and planted on top of approximately one inch of soil in separate pint cups. After planting, the cups are sprayed with the selected aqueous acetone solution containing test compound in sufficient quantity to provide the equivalent of about 0.0156 to 0.500 kg per hectare of test compound per cup. The treated cups are then placed on greenhouse benches, watered and cared for in accordance with conventional greenhouse procedures. From four to five weeks after treatment, the tests are terminated and each cup is examined and rated according to the rating system provided in Example 185.
The compounds evaluated are reported by compound number given in Example 185.

[4] = test system: Corn, Field, Zea mays; assay: Preemergence herbicidal evaluation, ZEAMX; format: in vivo, L.; details: 0.2500 kg/ha
In short: as §1

[5] = test system: CYPIR Rice Flatsedge; assay: Preemergence weed control, flooded paddy (Table III); format: in vivo, Cyperus iria; parameters: scale not given here
Method: (§3) Preemergence herbicidal activity under flooded paddy conditions is determined as follows: plant seeds or propagating organs are planted in the top 0.5 cm of silt loam soil in 32 oz. plastic containers with a diameter of 10.5 cm and no drainage holes. Water is added to these containers and maintained at 1.5 to 3 cm above the soil surface for the duration of the experiment. The test compounds are applied as aqueous/acetone mixtures 50/50 v/v pipetted directly into the flood water to give the equivalent of about 0.0313 to 0.500 kg/ha of active ingredient. The treated containers are placed on greenhouse benches and cared for in accordance with conventional greenhouse procedures. Three to four weeks after treatment, the test is terminated and each container is examined and herbicidal effect rated according to the rating system provided in Example 185. The compounds evaluated are reported by compound number given in Example 185.

[6] = test system: Rice, Tebonnet, Oryza sativa; assay: Postemergence herbicidal evaluation, ORYSAT; format: in vivo, (L.) Tebonnet; details: 0.2500 kg/ha
In short: (§4)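 Visual 0–9 rating vs untreated control (stand, vigor, malformation, size, chlorosis, overall appearance), scored 4–5 wk post-spray. Two-week-old seedlings; compound in 50/50 acetone/water + 0.5% TWEEN 20, ~0.0157–0.500 kg/ha, 40 psi nozzle.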

[7] = test system: SAGPY Arrowhead (Pygmaea); assay: Preemergence weed control, flooded paddy (Table III); format: in vivo, Sagittaria pygmaea; parameters: scale not given here
Method: as §3

[8] = test system: Wheat, Winter, cv Riband, Triticum aestivum; assay: Postemergence herbicidal evaluation, TRZAWR; format: in vivo; details: 0.2500 kg/ha
In short: as §4

[9] = test system: Ragweed, Common, Ambrosia artemisifolia; assay: Preemergence herbicidal evaluation, AMBEL; format: in vivo, L.; details: 0.2500 kg/ha
In short: as §1

[10] = test system: MOOVA Monochoria; assay: Postemergence weed control, flooded paddy (Table IV); format: in vivo, Monochoria vaginalis; parameters: scale not given here
In short: as §2

[11] = test system: CYPIR Rice Flatsedge; assay: as above; format: in vivo, Cyperus iria; parameters: scale not given here
In short: as §2

[12] = test system: Velvetleaf, Abutilon theophrasti; assay: Preemergence herbicidal evaluation, ABUTH; format: in vivo, Medic.; details: 0.2500 kg/ha
In short: as §1

[13] = test system: Ragweed, Common, Ambrosia artemisifolia; assay: Postemergence herbicidal evaluation, AMBEL; format: in vivo, L.; details: 0.2500 kg/ha
In short: as §4

[14] = test system: Foxtail, Green, Setaria viridis; assay: Postemergence herbicidal evaluation, SETVI; format: in vivo, (L.) Beau; details: 0.2500 kg/ha
In short: as §4

[15] = test system: Galium, Galium aparine; assay: Postemergence herbicidal evaluation, GALAP; format: in vivo; details: 0.2500 kg/ha
In short: as §4

[16] = test system: Sicklepod, Cassia obtusifolia; assay: Postemergence herbicidal evaluation, CASOB; format: in vivo, L.; details: 0.2500 kg/ha
In short: as §4

[17] = test system: ECHORC Watergrass (Calif.); assay: Preemergence weed control, flooded paddy (Table III); format: in vivo, Echinochloa oryzoides; parameters: scale not given here
Method: as §3

[18] = test system: MOOVA Monochoria; assay: as above; format: in vivo, Monochoria vaginalis; parameters: scale not given here
Method: as §3

SMILES | herbicide rating (0-9) [1] | herbicidal effect rating ([2]; 0.1250 kg/ha) | herbicidal effect rating ([2]; 0.2500 kg/ha) | herbicidal effect rating ([2]; 0.5000 kg/ha) | herbicide rating (0-9) [3] | herbicide rating (0-9) [4] | herbicidal effect rating ([5]; 0.0313 kg/ha) | herbicidal effect rating ([5]; 0.0625 kg/ha) | herbicidal effect rating ([5]; 0.1250 kg/ha) | herbicidal effect rating ([5]; 0.2500 kg/ha) | herbicidal effect rating ([5]; 0.5000 kg/ha) | herbicide rating (0-9) [6] | herbicidal effect rating ([7]; 0.0313 kg/ha) | herbicidal effect rating ([7]; 0.0625 kg/ha) | herbicidal effect rating ([7]; 0.1250 kg/ha) | herbicidal effect rating ([7]; 0.2500 kg/ha) | herbicidal effect rating ([7]; 0.5000 kg/ha) | herbicide rating (0-9) [8] | herbicide rating (0-9) [9] | herbicidal effect rating ([10]; 0.1250 kg/ha) | other results
COC(=O)C(C)Oc1cc(C)ccc1-c1nsc2ccc(-n3c(=O)cc(C(F)(F)F)n(C)c3=O)cc12 (stereo not drawn) [Compound 9, Methyl 2-{{6-{5-[3,6-dihydro-3-methyl-4-(trifluoromethyl)-2,6-dioxo-1(2H)-pyrimidinyl]-1,2-benzisothiazol-3-yl}-m-tolyl}oxy}propionate] | 9.0 | 9.0 | 9.0 | 9.0 | 9.0 | 9.0 | 9.0 | 9.0 | 9.0 | 9.0 | 9.0 | 9.0 | 0.0 | 2.0 | 8.0 | 8.0 | 9.0 | 9.0 | 9.0 | 9.0 | herbicidal effect rating ([10]; 0.2500 kg/ha): 9.0; herbicidal effect rating ([10]; 0.5000 kg/ha): 9.0; herbicidal effect rating ([11]; 0.1250 kg/ha): 9.0; herbicidal effect rating ([11]; 0.2500 kg/ha): 9.0; herbicidal effect rating ([11]; 0.5000 kg/ha): 9.0; herbicide rating (0-9) [12]: 9.0; herbicide rating (0-9) [13]: 9.0; herbicide rating (0-9) [14]: 9.0; herbicide rating (0-9) [15]: 8.0; herbicide rating (0-9) [16]: 9.0; herbicidal effect rating ([17]; 0.0313 kg/ha): 9.0; herbicidal effect rating ([17]; 0.0625 kg/ha): 9.0; herbicidal effect rating ([17]; 0.1250 kg/ha): 9.0; herbicidal effect rating ([17]; 0.2500 kg/ha): 9.0; herbicidal effect rating ([17]; 0.5000 kg/ha): 9.0; herbicidal effect rating ([18]; 0.0313 kg/ha): 9.0; herbicidal effect rating ([18]; 0.0625 kg/ha): 9.0; herbicidal effect rating ([18]; 0.1250 kg/ha): 9.0; herbicidal effect rating ([18]; 0.2500 kg/ha): 9.0; herbicidal effect rating ([18]; 0.5000 kg/ha): 9.0
CCc1ccc(-c2nsc3ccc(-n4c(=O)cc(C(F)(F)F)n(C)c4=O)cc23)cc1 [Compound 5, 3-[3-(p-Ethylphenyl)-1,2-benzisothiazol-5-yl]-1-methyl-6-(trifluoromethyl)-2,4 (1H,3H)-pyrimidinedione] | 9.0 | 6.0 | 9.0 | 9.0 | 9.0 | 3.0 | 9.0 | 9.0 | 9.0 | 9.0 | 9.0 | 3.0 | 0.0 | 0.0 | 2.0 | 7.0 | 7.0 | 2.0 | 9.0 | 9.0 | herbicidal effect rating ([10]; 0.2500 kg/ha): 9.0; herbicidal effect rating ([10]; 0.5000 kg/ha): 9.0; herbicidal effect rating ([11]; 0.1250 kg/ha): 9.0; herbicidal effect rating ([11]; 0.2500 kg/ha): 9.0; herbicidal effect rating ([11]; 0.5000 kg/ha): 9.0; herbicide rating (0-9) [12]: 9.0; herbicide rating (0-9) [13]: 9.0; herbicide rating (0-9) [14]: 9.0; herbicide rating (0-9) [15]: 9.0; herbicide rating (0-9) [16]: 9.0; herbicidal effect rating ([17]; 0.0313 kg/ha): 9.0; herbicidal effect rating ([17]; 0.0625 kg/ha): 9.0; herbicidal effect rating ([17]; 0.1250 kg/ha): 9.0; herbicidal effect rating ([17]; 0.2500 kg/ha): 9.0; herbicidal effect rating ([17]; 0.5000 kg/ha): 9.0; herbicidal effect rating ([18]; 0.0313 kg/ha): 9.0; herbicidal effect rating ([18]; 0.0625 kg/ha): 9.0; herbicidal effect rating ([18]; 0.1250 kg/ha): 9.0; herbicidal effect rating ([18]; 0.2500 kg/ha): 9.0; herbicidal effect rating ([18]; 0.5000 kg/ha): 9.0
COC(=O)COc1cc(C)c(C)cc1-c1nsc2ccc(-n3c(=O)cc(C(F)(F)F)n(C)c3=O)cc12 [Compound 12, Methyl {{6-{5-[3,6-dihydro-3-methyl-4-(trifluoromethyl)-2,6-dioxo-1(2H)-pyrimidinyl]-1,2-benzisothiazol-3-yl}-3,4-xylyl}oxy}acetate] | 6.0 | 6.0 | 9.0 | 9.0 | 9.0 | 7.0 | 9.0 | 9.0 | 9.0 | 9.0 | 9.0 | 9.0 | 0.0 | 2.0 | 4.0 | 9.0 | 9.0 | 9.0 | 9.0 | 9.0 | herbicidal effect rating ([10]; 0.2500 kg/ha): 9.0; herbicidal effect rating ([10]; 0.5000 kg/ha): 9.0; herbicidal effect rating ([11]; 0.1250 kg/ha): 9.0; herbicidal effect rating ([11]; 0.2500 kg/ha): 9.0; herbicidal effect rating ([11]; 0.5000 kg/ha): 9.0; herbicide rating (0-9) [12]: 9.0; herbicide rating (0-9) [13]: 9.0; herbicide rating (0-9) [14]: 9.0; herbicide rating (0-9) [15]: 9.0; herbicide rating (0-9) [16]: 9.0; herbicidal effect rating ([17]; 0.0313 kg/ha): 9.0; herbicidal effect rating ([17]; 0.0625 kg/ha): 9.0; herbicidal effect rating ([17]; 0.1250 kg/ha): 9.0; herbicidal effect rating ([17]; 0.2500 kg/ha): 9.0; herbicidal effect rating ([17]; 0.5000 kg/ha): 9.0; herbicidal effect rating ([18]; 0.0313 kg/ha): 9.0; herbicidal effect rating ([18]; 0.0625 kg/ha): 9.0; herbicidal effect rating ([18]; 0.1250 kg/ha): 9.0; herbicidal effect rating ([18]; 0.2500 kg/ha): 9.0; herbicidal effect rating ([18]; 0.5000 kg/ha): 9.0
